Measured values as given in US20200164078A1, “APPLICABLE CHEMICAL COMPOSITION COMPRISING AN AGENT CONJUGATED TO A HYDROPHOBIC MOIETY AND A CARRIER” (TECHNISCHE UNIVERSITEIT EINDHOVEN, priority 2017, published 2020).
“Also recorded” adds a separate entry of the source.

Tests used:
[1] = cited from earlier work
[2] = Release from 10 wt % bifunctional UPy-PEG10k hydrogel into PBS; format: physicochemical
Description: The UPy-PEG10k liquid carrier composition was prepared by dissolving the UPy-PEG10k powder in PBS at elevated pH by stirring at 70° C. for 1 h using a magnetic stirrer (e.g. 10 mg in 90 μl PBS pH 11.7 for a 10 wt % hydrogel). Afterwards the viscous solution was cooled to RT with a resulting pH of approximately 9.0. […] The obtained composition is a liquid composition at this pH.
100 μL of the solutions were transferred to Millicell hanging cell culture inserts (PIEP12R48/MCEP24H48) and immediately placed in a 24-well plate with 600 μL PBS per well. Contact with the neutral PBS through the membrane of the insert results in gelation of the liquid carrier, forming the hydrogel. At set time-points the PBS was refreshed and the removed PBS was analyzed for MMC or MPC content. Analysis was performed by measuring UV absorption and converted to concentration via predetermined standard curves. […] […]. Release of MPC can be correlated to the erosion of the hydrogel. The initial goal to couple cholesterol to MMC to slow down the release from the hydrogel is accomplished hereby.

[3] = Stability measurements by UV absorption in PBS; conditions: 200 mg/L, day 0-13
CC531 cells = conditions: approximately 24 hour incubation; for Efficacy: MTT; for EC50: global sigmoidal fit of three assays, n=8, ±SD
Description: After approximately 24 hour incubation in the cell incubator, 25 μL of freshly prepared MTT solution (5 mg/mL in PBS, filtered through 0.2 μm filter) was added to the wells and incubated for 2 hours. The medium was then completely removed and replaced with 125 μL 0.04 M HCl in isopropanol and incubated for 1 hour. After gently mixing, 100 μl of the isopropanol solution was transferred to a Costar EIA/RIA 96 transparent flat bottom wells plate. The absorbance was measured at 570 nm with 650 nm as reference. Absorbance of MTT was read out on a Tecan Saffire 2 plate reader and Tecan Spark 10M plate reader. Values were normalized to untreated cells. The complete assay was performed three times for CC531 cells. All data sets were used together to fit a global sigmoidal dose response curve with a shared slope and center, giving one EC50 per cell line. A concatenate fit was plotted through the MTT results for visualization. […] Every experiment n=8, ±SD.

**Q.** For CC(C)CCC[C@@H](C)[C@H]1CC[C@H]2[C@@H]3CC=C4C[C@@H](O)CC[C@]4(C)[C@H]3CC[C@]12C [Cholesterol], which Water solubility [1] is on record?
**A.** Less than 0.000095 mg/mL)

**Q.** Which Water solubility [1] does the source give for COc1cccc2c1C(=O)c1c(O)c3c(c(O)c1C2=O)C[C@@](O)(C(C)=O)C[C@@H]3O[C@H]1C[C@H](N)[C@H](O)[C@H](C)O1 [Daunorubicin] here?
**A.** 0.039 mg/mL

**Q.** For COc1cccc2c1C(=O)c1c(O)c3c(c(O)c1C2=O)C[C@@](O)(C(=O)CO)C[C@@H]3O[C@H]1C[C@H](N)[C@H](O)[C@H](C)O1 [Doxorubicin], which Water solubility [1] is on record?
**A.** 1.18 mg/mL

**Q.** With Nc1ccn([C@@H]2O[C@H](CO)[C@@H](O)C2(F)F)c(=O)n1 [Gemcitabine] as the molecule, how does the Water solubility [1] read?
**A.** 51.3 mg/mL

**Q.** What does the source list for CO[C@@]12[C@H](COC(N)=O)C3=C(C(=O)C(C)=C(N)C3=O)N1C[C@@H]1N[C@@H]12 [MMC, Mitomycin C]?
**A.** Release (%) ([2]; 0.3 mM in gel, time 0.05 day): 38.93%; Release (%) ([2]; 0.3 mM in gel, time 0.21 day): 69.58%; Release (%) ([2]; 0.3 mM in gel, time 1.00 day): 86.44%; Release (%) ([2]; 3 mM in gel, time 0.06 day): 34.09%; Release (%) ([2]; 3 mM in gel, time 0.17 day): 58.33%; Release (%) ([2]; 3 mM in gel, time 0.38 day): 79.92%; Release (%) ([2]; 3 mM in gel, time 1.00 day): 95.83%; Release (%) ([2]; 3 mM in gel, time 2.00 day): 102.65%; Time of release from the hydrogel ([2]; 10 wt % UPy-PEG10k hydrogel, diffusion kinetics): approximately 24 hours; Stability (UV absorption spectra) ([3]; pH 6.5, 37° C.): unstable; also recorded: degrades; Stability (UV absorption spectra) ([3]; pH 7.4, 4° C.): stable; Stability (UV absorption spectra) ([3]; pH 7.4, 37° C.): stable; Efficacy (CC531 cells): approximately 100%; EC50 (CC531 cells): 19.6 ± 3.2 µM

**Q.** What does the source list for Mitomycin-PEG24-Cholesterol [MPC]?
**A.** Efficacy (CC531 cells): approximately 100%; EC50 (CC531 cells): 3.8 ± 1.1 µM
